Measurements published in patent publication US20220033407A1, “N-(pyridin-2-ylsulfonyl)cyclopropanecarboxamide Derivatives and their Use in the Treatment of Disease” (NOVARTIS AG, priority 2018, published 2022).
Blank lines part the entries; values can stand above or below the molecule they belong to.

How the values were obtained:
delF508-CFTR-HRP = molecular target: T1, delF508-CFTR-HRP (Homo sapiens, UniProt P13569, DEL508-508); assay: Measurement of delF508-CFTR-HRP surface expression in CFBE41o- cells (HRP luminescence); assay type: cell-based; details: for Emax: CFBE41o-, read-out: DelF508-CFTR-HRP Amax %; for EC50: mean of at least two replicates;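 for DelF508-CFTR-HRP Amax %: percent efficacy relative to a reference CFTR corrector compound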
T1 construct: expressed in transfected cells
T1 sequence (P13569 with tags, fused parts or gaps DEL508-508): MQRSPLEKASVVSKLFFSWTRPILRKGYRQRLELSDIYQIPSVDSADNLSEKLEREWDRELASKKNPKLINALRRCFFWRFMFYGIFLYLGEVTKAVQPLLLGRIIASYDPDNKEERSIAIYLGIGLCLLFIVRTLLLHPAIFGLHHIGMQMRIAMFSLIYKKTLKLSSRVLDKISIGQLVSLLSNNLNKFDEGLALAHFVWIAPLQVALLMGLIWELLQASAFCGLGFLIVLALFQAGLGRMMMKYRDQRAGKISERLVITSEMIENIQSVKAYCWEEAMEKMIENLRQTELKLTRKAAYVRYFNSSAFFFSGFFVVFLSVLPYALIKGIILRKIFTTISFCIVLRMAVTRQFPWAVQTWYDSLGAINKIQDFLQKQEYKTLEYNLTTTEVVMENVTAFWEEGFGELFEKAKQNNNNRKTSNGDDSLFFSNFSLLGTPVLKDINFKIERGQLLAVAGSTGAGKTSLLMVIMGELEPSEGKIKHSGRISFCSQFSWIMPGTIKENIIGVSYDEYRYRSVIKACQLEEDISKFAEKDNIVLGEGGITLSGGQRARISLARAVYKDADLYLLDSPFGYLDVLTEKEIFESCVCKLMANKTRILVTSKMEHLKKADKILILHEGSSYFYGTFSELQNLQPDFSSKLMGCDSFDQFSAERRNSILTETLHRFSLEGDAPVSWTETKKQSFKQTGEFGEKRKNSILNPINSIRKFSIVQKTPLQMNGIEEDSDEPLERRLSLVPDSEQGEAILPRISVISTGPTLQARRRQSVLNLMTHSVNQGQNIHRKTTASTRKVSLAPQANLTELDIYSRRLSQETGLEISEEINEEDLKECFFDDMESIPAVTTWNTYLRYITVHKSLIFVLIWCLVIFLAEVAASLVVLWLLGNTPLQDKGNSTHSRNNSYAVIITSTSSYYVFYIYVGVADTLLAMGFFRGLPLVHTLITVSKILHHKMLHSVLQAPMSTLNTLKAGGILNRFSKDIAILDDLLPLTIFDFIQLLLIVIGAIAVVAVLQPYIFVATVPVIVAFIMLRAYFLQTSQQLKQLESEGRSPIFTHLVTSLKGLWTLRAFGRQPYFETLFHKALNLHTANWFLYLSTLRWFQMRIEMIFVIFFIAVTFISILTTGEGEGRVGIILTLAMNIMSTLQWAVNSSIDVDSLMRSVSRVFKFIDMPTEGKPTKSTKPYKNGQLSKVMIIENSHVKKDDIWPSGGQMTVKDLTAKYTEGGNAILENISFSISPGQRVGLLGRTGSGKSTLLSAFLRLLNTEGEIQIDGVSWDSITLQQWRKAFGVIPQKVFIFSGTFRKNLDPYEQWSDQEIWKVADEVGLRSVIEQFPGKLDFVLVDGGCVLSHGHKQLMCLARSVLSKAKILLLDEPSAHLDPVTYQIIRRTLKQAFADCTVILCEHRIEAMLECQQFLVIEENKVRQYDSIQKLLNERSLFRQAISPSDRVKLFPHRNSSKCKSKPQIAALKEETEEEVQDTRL
Summary of the method: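 Stably transfected CFBE41o- cells carrying HRP in the fourth extracellular loop of delF508-CFTR, induced with 500 ng/mL doxycycline for 48 h, then compound-treated 24 h at 37° C (10-point, 3-fold, top 10 μM). Surface HRP detected by luminescent substrate; EC50 from logistic fit, triplicates, normalized to lowest-concentration median.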

delF508-CFTR = molecular target: T2, delF508-CFTR (Homo sapiens, UniProt P13569, DEL508-508); assay: delF508-CFTR functional activity in primary human bronchial epithelial cells (HBECs), Multi-Transepithelial Clamp Circuit (MTECC-24) assay, equivalent short circuit current; assay type: cell-based; details: primary CF HBECs; for MTECC24 CFHBEC-Amax %: relative to reference combination 2 μM 3-(6-(1-(2,2-difluorobenzo[d][1,3]dioxol-5-yl)cyclopropane-1-carboxamido)-3-methylpyridin-2-yl)benzoic acid (24 h) + 0.5 μM N-(2,4-di-tert-butyl-5-hydroxyphenyl)-4-oxo-1,4-dihydroquinoline-3-carboxamide; for EC50: test compound added 24 h before assay, potentiator (S)-3-amino-6-methoxy-N-(3,3,3-trifluoro-2-hydroxy-2-methylpropyl)-5-(trifluoromethyl)picolinamide present at assay, mean of at least two replicates, read-out: MTECC24 CFHBEC-EC50
T2 construct: functional activity of the CFTR channel (Chloride ion transport) in patient derived primary human bronchial epithelial cells; host or cells: patient-derived primary human bronchial epithelial cells (HBECs), delF508-CFTR
T2 sequence (P13569 with tags, fused parts or gaps DEL508-508): as above
Summary of the method: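 Patient-derived delF508 HBECs, grown at air-liquid interface about two weeks, were corrected with compound basolaterally for 24 h. Compound was then re-added apically and basolaterally in HEPES pH7.4 assay medium, with sequential modulators including forskolin and the picolinamide potentiator. Ieq was recorded, normalised to 0.1% DMSO wells, and EC50 fitted from 10-point curves.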

Structure (SMILES): [2H]C1([2H])OC([2H])([2H])C([2H])([2H])N(c2cccc(S(=O)(=O)NC(=O)C3(Oc4cc(C)ccc4C4CCCCC4)CC3)n2)C1([2H])[2H] [Example 2-39, 1-(2-Cyclohexyl-5-methylphenoxy)-N-((6-(morpholino-d8)pyridin-2-yl)sulfonyl)cyclopropane-1-carboxamide]
Emax (delF508-CFTR-HRP): 383% | EC50 (delF508-CFTR-HRP): 1800 nM | MTECC24 CFHBEC-Amax % (delF508-CFTR): 67% | EC50 (delF508-CFTR): 2 nM

Structure (SMILES): CC1(C)CCN(c2ccc(Cl)cc2OC2(C(=O)NS(=O)(=O)c3cccc(N4CC[C@H](O)C4)n3)CC2)CC1 [Example 8-1, (S)-1-(5-Chloro-2-(4,4-dimethylpiperidin-1-yl)phenoxy)-N-((6-(3-hydroxypyrrolidin-1-yl)pyridin-2-yl)sulfonyl)cyclopropane-1-carboxamide]
EC50 (delF508-CFTR-HRP): 1740 nM | MTECC24 CFHBEC-Amax % (delF508-CFTR): 197.2% | EC50 (delF508-CFTR): 373 nM

Structure (SMILES): COC(=O)C1CCN(c2cccc(S(=O)(=O)NC(=O)C3(Oc4cc(C)ccc4C4CCCCC4)CC3)n2)CC1 [Example 2-4, Methyl 1-(6-(N-(1-(2-cyclohexyl-5-methylphenoxy)cyclopropane-1-carbonyl)sulfamoyl)pyridin-2-yl)piperidine-4-carboxylate]
Emax (delF508-CFTR-HRP): 808% | EC50 (delF508-CFTR-HRP): 1290 nM | MTECC24 CFHBEC-Amax % (delF508-CFTR): 91% | EC50 (delF508-CFTR): 10 nM

Structure (SMILES): Cc1ccc(C2(C(F)(F)F)CC2)c(OC2(C(=O)NS(=O)(=O)c3cccc(N)n3)CCCC2)c1 [Example 1-8, N-((6-Aminopyridin-2-yl)sulfonyl)-1-(5-methyl-2-(1-(trifluoromethyl)cyclopropyl)phenoxy)cyclopentane-1-carboxamide]
Emax (delF508-CFTR-HRP): 165% | EC50 (delF508-CFTR-HRP): 2380 nM | MTECC24 CFHBEC-Amax % (delF508-CFTR): 46% | EC50 (delF508-CFTR): 6 nM

Structure (SMILES): Cc1ccc(C2CCCCC2)c(OC2(C(=O)NS(=O)(=O)c3cccc(N4CC5(CCN5)C4)n3)CC2)c1 [Example 2-21, N-((6-(1,6-Diazaspiro[3.3]heptan-6-yl)pyridin-2-yl)sulfonyl)-1-(2-cyclohexyl-5-methylphenoxy)cyclopropanecarboxamide]
Emax (delF508-CFTR-HRP): 252% | EC50 (delF508-CFTR-HRP): 3390 nM | MTECC24 CFHBEC-Amax % (delF508-CFTR): 99% | EC50 (delF508-CFTR): 93 nM

Structure (SMILES): Cc1ccc(C2CCCCC2)c(OC2(C(=O)NS(=O)(=O)c3cccc(N4CCC(N)(C(F)(F)F)CC4)n3)CC2)c1 [Example 2-17, N-((6-(4-Amino-4-(trifluoromethyl)piperidin-1-yl)pyridin-2-yl)sulfonyl)-1-(2-cyclohexyl-5-methylphenoxy)cyclopropanecarboxamide]
Emax (delF508-CFTR-HRP): 503% | EC50 (delF508-CFTR-HRP): 730 nM | MTECC24 CFHBEC-Amax % (delF508-CFTR): 90% | EC50 (delF508-CFTR): 4 nM

Structure (SMILES): Cc1ccc(C2CCCCC2)c(OC2(C(=O)NS(=O)(=O)c3cccc(N4CCC(C)(N)C4)n3)CC2)c1 (stereo not drawn) [Example 2-27, N-((6-(3-Amino-3-methylpyrrolidin-1-yl)pyridin-2-yl)sulfonyl)-1-(2-cyclohexyl-5-methylphenoxy)cyclopropanecarboxamide]
Emax (delF508-CFTR-HRP): 181% | EC50 (delF508-CFTR-HRP): 2580 nM | MTECC24 CFHBEC-Amax % (delF508-CFTR): 104% | EC50 (delF508-CFTR): 70 nM

Now from value to molecule:

Emax (delF508-CFTR-HRP): 134% | EC50 (delF508-CFTR-HRP): 4670 nM | MTECC24 CFHBEC-Amax % (delF508-CFTR): 34% | EC50 (delF508-CFTR): 568 nM
Structure (SMILES): Cc1ccc(C)c(OC2(C(=O)NS(=O)(=O)c3cccc(N4CCOC[C@@H]4C)n3)CC2)c1 [Example 4-2, (S)-1-(2,5-Dimethylphenoxy)-N-((6-(3-methylmorpholino)pyridin-2-yl)sulfonyl)cyclopropane-1-carboxamide]

Emax (delF508-CFTR-HRP): 298% | EC50 (delF508-CFTR-HRP): 3110 nM | MTECC24 CFHBEC-Amax % (delF508-CFTR): 87% | EC50 (delF508-CFTR): 76 nM
Structure (SMILES): Cc1ccc(-c2cccc(C(F)F)c2)c(OC2(C(=O)NS(=O)(=O)c3cccc(N4CC[C@H](O)C4)n3)CC2)c1 [Example 5-9, (S)-1-((3′-(Difluoromethyl)-4-methyl-[1,1′-biphenyl]-2-yl)oxy)-N-]

Emax (delF508-CFTR-HRP): 418% | EC50 (delF508-CFTR-HRP): 1920 nM | MTECC24 CFHBEC-Amax % (delF508-CFTR): 82% | EC50 (delF508-CFTR): 51 nM
Structure (SMILES): O=C(NS(=O)(=O)c1cccc(N2CC(O)C2)n1)C1(Oc2cc(Cl)ccc2C2CCC3(CC2)CC3)CC1 [Example 4-12, 1-(5-Chloro-2-(spiro[2.5]octan-6-yl)phenoxy)-N-((6-(3-hydroxyazetidin-1-yl)pyridin-2-yl)sulfonyl)cyclopropane-1-carboxamide]
